# Source: article PMC7537881, “Biochemical screening for SARS-CoV-2 main protease inhibitors” (PLoS ONE, 2020)
# Entries after “also recorded” stand apart in the source; their conditions may differ. Where two headings read alike, the source gives them in different places.
# Assays:
# SARS-CoV-2 = details: cited from earlier work
# SARS-CoV-2 M^pro [1] = target: T1, SARS-CoV-2 M^pro (Severe acute respiratory syndrome coronavirus 2, UniProt P0DTD1); test: biochemical; details: 10 μM substrate, 0.5 μM enzyme, triplicate; error = SEM
# mouse = details: ref www.pubchem.gov, cited from earlier work
# rat = details: cited from earlier work
# SARS-CoV-2 M^pro [2] = target: T1, SARS-CoV-2 M^pro; test: biochemical; assay type: biochemical; details: for Km: read-out: Km (Michaelis Menten constant)
# SARS-CoV-2 M^pro [3] = target: T1, SARS-CoV-2 M^pro; assay type: biochemical; details: 1 μM Mpro, 10 μM substrate, 40 μM compound
# SARS-CoV M^pro = details: cited from earlier work
# [4] = test system: HIV's reverse transcriptase; parameters: method as in PMID 1517963; details: biochemical assays; cited from earlier work
# [5] = test system: human immunodeficiency virus (HIV); parameters: method as in PMID 1517963; details: cited from earlier work
# hepatitis B virus (HBV) = test system: hepatitis B virus (HBV); parameters: method as in PMID 31798562; details: cited from earlier work
# [6] = route and species not given; ref www.pubchem.gov; cited from earlier work
# Vero-cell = details: cited from earlier work
# SARS-CoV = details: cited from earlier work
# [7] = 0.5 μM Mpro, substrate 1.25-80 μM, two inhibitor concentrations, error = SEM
# [8] = fitted in the kinetics experiment with this inhibitor, error = SEM
# [9] = most probable model by SSQ, ΔAIC, ΔBIC (Dynafit)
compound,measurement,setting,value
COC(=O)N[C@H](C(=O)N[C@@H](Cc1ccccc1)[C@@H](O)CN(Cc1ccc(-c2ccccn2)cc1)NC(=O)[C@@H](NC(=O)OC)C(C)(C)C)C(C)(C)C [atazanavir],EC50,SARS-CoV-2,2 µM
"CC1=CC(=O)c2c(O)cccc2C1=O [Plumbagin (9), Plumbagin]",IC50,SARS-CoV-2 M^pro [1],17.1 ± 9 µM
same,LD50,mouse; oral,16 mg/kg
O=c1c2ccccc2[se]n1-c1ccccc1 [ebselen],LD50,rat; in rats,"> 4,600 mg/kg"
"CC1=C(CCC(=O)O)c2cc3[nH]c(cc4nc(cc5[nH]c(cc1n2)c(C)c5C(C)O)C(C)=C4C(C)O)c(C)c3CCC(=O)O (stereo not drawn) [Hematoporphyrin (5), Hematoporphyrin]",IC50,SARS-CoV-2 M^pro [1],3.9 ± 0.6 µM
same,LD50,mouse; IV,307 mg/kg
same,Ki,SARS-CoV-2 M^pro [2]; [7],5.9 ± 0.5 µM
same,kcat (turnover number),SARS-CoV-2 M^pro [2]; [8],0.011 s⁻¹
same,Inhibition mechanism,SARS-CoV-2 M^pro [2]; [9],non-competitive
same,Inhibition mechanism,"SARS-CoV-2 M^pro [2]; most probable model by SSQ, ΔAIC, ΔBIC (Dynafit), listed as hematoporphyrin (5)",mixed or non-competitive inhibition
C=CC1=C(C)c2cc3[nH]c(cc4nc(cc5[nH]c(cc1n2)c(C)c5CCC(=O)O)C(CCC(=O)O)=C4C)c(C)c3C=C [Protoporphyrin IX],IC50,SARS-CoV-2 M^pro [1],23 ± 2.4 µM
"CC(=O)[O][Hg][c]1ccccc1 [Phenylmercuric acetate (2), Phenylmercuric acetate]",IC50,SARS-CoV-2 M^pro [1],0.4 ± 0.06 µM
same,Inhibition mechanism,SARS-CoV-2 M^pro [2],competitive inhibition
same,Ki,SARS-CoV-2 M^pro [2],0.11 ± 0.03 µM
same,kcat (turnover number),SARS-CoV-2 M^pro [2],0.013 s⁻¹
same,Km,SARS-CoV-2 M^pro [2],52 µM
same,LD50,"rat; oral, rat, ref www.pubchem.gov",41 mg/kg
"CCOc1cccc(C(=O)c2ccc(O)c(O)c2O)c1 [(3-ethoxyphenyl)-(2,3,4-trihydroxyphenyl)methanone]",IC50,SARS-CoV-2 M^pro [1],10.6 ± 1.3 µM
"O=C(OCC1OC(OC(=O)c2cc(O)c(O)c(OC(=O)c3cc(O)c(O)c(O)c3)c2)C(OC(=O)c2cc(O)c(O)c(OC(=O)c3cc(O)c(O)c(O)c3)c2)C(OC(=O)c2cc(O)c(O)c(OC(=O)c3cc(O)c(O)c(O)c3)c2)C1OC(=O)c1cc(O)c(O)c(OC(=O)c2cc(O)c(O)c(O)c2)c1)c1cc(O)c(O)c(OC(=O)c2cc(O)c(O)c(O)c2)c1 (stereo not drawn) [Tannic acid (4), Tannic acid]",Relative activity (initial rate / negative control),SARS-CoV-2 M^pro [3],0.0 (SD = 0.014)
same,IC50,SARS-CoV-2 M^pro [1],2.1 ± 0.2 µM
same,Ki,SARS-CoV-2 M^pro [2]; [7],1.4 ± 0.14 µM
same,kcat (turnover number),SARS-CoV-2 M^pro [2]; [8],0.010 s⁻¹
same,Inhibition mechanism,SARS-CoV-2 M^pro [2]; [9],Competitive
same,Inhibition mechanism,"SARS-CoV-2 M^pro [2]; most probable model by SSQ, ΔAIC, ΔBIC (Dynafit), listed as tannic acid (4)",competitive inhibition
same,IC50,SARS-CoV M^pro,3 µM
"Cc1cc(-c2ccc(/N=N/c3ccc4c(S(=O)(=O)O)cc(S(=O)(=O)O)c(N)c4c3O)c(C)c2)ccc1/N=N/c1ccc2c(S(=O)(=O)O)cc(S(=O)(=O)O)c(N)c2c1O [Evans blue (11), Evans blue]",Inhibition of HIV reverse transcriptase,[4],inhibit
same,IC50,SARS-CoV-2 M^pro [1],0.2 ± 0.06 µM
same,Inhibition of HIV in cellular assays,[5],inhibit
same,LD50,mouse; IP,340 mg/kg
same,Ki,SARS-CoV-2 M^pro [2]; [7],0.21 ± 0.02 µM
same,kcat (turnover number),SARS-CoV-2 M^pro [2]; [8],0.010 s⁻¹
same,Inhibition mechanism,SARS-CoV-2 M^pro [2]; [9],competitive inhibition
same,Inhibition of HBV in cellular assays,hepatitis B virus (HBV),inhibitor
COc1cc(C(=S)N2CCOCC2)ccc1O [Vanitiolide (10)],IC50,SARS-CoV-2 M^pro [1],4.6 ± 0.6 µM
"COc1cc(-c2ccc(/N=N/c3ccc4c(S(=O)(=O)O)cc(S(=O)(=O)O)c(N)c4c3O)c(OC)c2)ccc1/N=N/c1ccc2c(S(=O)(=O)O)cc(S(=O)(=O)O)c(N)c2c1O [Chicago Sky Blue (12), Chicago Sky Blue]",Inhibition of HIV reverse transcriptase,[4],inhibit
same,IC50,SARS-CoV-2 M^pro [1],7.7 ± 1.6 µM
same,Inhibition of HIV in cellular assays,[5],inhibit
same,LD50,mouse; IV,2260 mg/kg
same,Ki,SARS-CoV-2 M^pro [2]; [7],1.3 ± 0.2 µM
same,kcat (turnover number),SARS-CoV-2 M^pro [2]; [8],0.013 s⁻¹
same,Inhibition mechanism,SARS-CoV-2 M^pro [2]; [9],competitive inhibition
"O=[N+]([O-])C(Br)(CO)CO [Bronopol (3), 2-bromo-2-nitropropane-1,3-diol]",IC50,SARS-CoV-2 M^pro [1],4.4 ± 0.6 µM
same,LD50,[6],180 mg/kg
same,Ki,SARS-CoV-2 M^pro [2]; [7],2.5 ± 0.3 µM
same,kcat (turnover number),SARS-CoV-2 M^pro [2]; [8],0.010 s⁻¹
same,Inhibition mechanism,SARS-CoV-2 M^pro [2]; [9],non-competitive
same,Inhibition mechanism,"SARS-CoV-2 M^pro [2]; most probable model by SSQ, ΔAIC, ΔBIC (Dynafit), listed as bronopol (3)",mixed or non-competitive inhibition
"CCOc1ccc(C(=O)c2ccc(O)c(O)c2O)cc1 [(4-ethoxyphenyl)-(2,3,4-trihydroxyphenyl)methanone]",IC50,SARS-CoV-2 M^pro [1],9 ± 1.5 µM
"C[CH2][Hg][S]c1ccccc1C(=O)[O-].[Na+] [Thimerosal (1), Thimerosal]",IC50,SARS-CoV-2 M^pro [1],0.6 ± 0.1 µM
same,Inhibition mechanism,SARS-CoV-2 M^pro [2],mixed or non-competitive inhibition; also recorded: Mixed
same,Ki,SARS-CoV-2 M^pro [2],0.6 ± 0.2 µM
same,kcat (turnover number),SARS-CoV-2 M^pro [2],0.010 s⁻¹
same,Km,SARS-CoV-2 M^pro [2],47 ± 8 µM
same,LD50,"rat; oral, rat, ref www.pubchem.gov",75 mg/kg
"COc1ccc(C(=O)c2ccc(O)cc2)c(O)c1O [2,3,4'-trihydroxy-4-methoxybenzophenone]",Inhibitory activity in the screen,SARS-CoV-2 M^pro [3],no significant inhibitory activity
"O=C1C(Cl)=C(Cl)C(=O)C(Cl)=C1Cl [Chloranil (8), Chloranil]",IC50,SARS-CoV-2 M^pro [1],4.1 ± 0.8 µM
same,LD50,"rat; oral, rat, ref www.pubchem.gov",4000 mg/kg
CCOC(=O)c1cc(=O)oc2cc(O)c(O)cc12 [esculetin-4-carboxylic acid ethyl ester],TC50 (median toxic concentration),Vero-cell,> 800 µM
same,EC50,SARS-CoV,112 µM
same,IC50,SARS-CoV M^pro,46 µM
